This assay has as its target T1, hyaluronan synthase (Streptococcus pyogenes, UniProt P0C0H0, K60N).
T1 construct: FLAG; made in house; host or cells: Escherichia coli SURE, plasmid pKK223-3
T1 sequence (P0C0H0 1-419 K60N): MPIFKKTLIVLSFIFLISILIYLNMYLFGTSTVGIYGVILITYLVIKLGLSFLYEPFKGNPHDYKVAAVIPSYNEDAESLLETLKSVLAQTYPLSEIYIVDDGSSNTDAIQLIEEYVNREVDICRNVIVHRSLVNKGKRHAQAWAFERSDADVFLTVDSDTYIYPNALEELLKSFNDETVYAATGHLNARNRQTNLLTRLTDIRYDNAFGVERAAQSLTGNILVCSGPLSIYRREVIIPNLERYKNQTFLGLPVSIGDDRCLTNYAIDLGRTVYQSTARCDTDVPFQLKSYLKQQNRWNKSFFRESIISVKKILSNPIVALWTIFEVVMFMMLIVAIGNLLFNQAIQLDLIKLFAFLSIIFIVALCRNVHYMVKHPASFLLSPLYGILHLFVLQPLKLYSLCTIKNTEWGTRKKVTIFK
Briefly: Inhibitory concentration IC50 of uridine diphosphate against hyaluronan synthase (HPLC of hyaluronan). The conditions noted are these: hyaluronan synthase (B-1) 1.5 U/mL, 40° C., pH 7.5. The assay is classed as biochemical, Streptococcus equisimilis. As for the experimental part: An enzyme reaction solution (I) containing specific amounts of polysaccharide synthase (B), ribonucleoside diphosphate-monosaccharide (A), ribonucleoside diphosphate, pH adjuster (K), and water is prepared, which is adjusted to a specific temperature and a specific pH. […]
A portion (e.g., 100 μL) of the enzyme reaction solution (I) prepared is extracted immediately after preparation and at certain time intervals (e.g., 5 min). […] Using liquid chromatography (hereinafter abbreviated as HPLC), the amount of polysaccharide in each extracted reaction solution is quantitated. An initial enzyme reaction velocity v (M/s) is calculated from the difference ΔP (ΔP=Ph−P0) in peak areas and a calibration curve based on the peak areas of the polysaccharide, wherein P0 is the peak area immediately after preparation of the enzyme reaction solution (I), and Ph is the peak area after h hour(s) from preparation. […]

SMILES strings stand for the structures.

A word on the IC50: it is the concentration at which inhibition is half-maximal. Regarding `O=c1ccn([C@@H]2O[C@H](COP(=O)(O)OP(=O)(O)O)[C@@H](O)[C@H]2O)c(=O)[nH]1` [uridine diphosphate], the IC50 came to 110 µM.

Values taken from patent US9670514B2, “Method for producing polysaccharide” (SANYO CHEMICAL INDUSTRIES, LTD., priority 2011, dated 2017).
